Consider 13 compounds from patent US20220409629A1, “BENZODIAZEPINE DERIVATIVES FOR TREATING A RESPIRATORY SYNCYTIAL VIRUS (RSV) INFECTION” (priority 2019, published 2022).

The subject of one data set is RSV A2. The data set is described as follows: RSV plaque reduction assay. It counts as cell-based, respiratory syncytial virus (RSV). To be noted: human respiratory syncytial virus, HepG2; Hep-G2 cells, RSV A2, mean of at least two experiments. Here is the method:
Compounds were subjected to RSV plaque reduction assays according to the following protocol.
Hep-G2 cells (ECACC, 85011430) were passaged in flasks and seeded in 24-well plates in DMEM containing antibiotics and supplemented with 10% FBS. During inoculation and subsequent incubation, cells were cultured in DMEM containing 2% FBS. 100 plaque forming unit/well of RSV (RSV A2 ECACC, 0709161v) was mixed with eight serial dilutions of compound. Subsequently, 100 μL of the virus/compound mixtures was added to confluent Hep-G2 cell monolayers. The cells and virus/compound mixtures were incubated at 37° C. in a humidified 5% CO2 incubator for 2 h prior to removal of the inoculum and addition of 1 mL of overlay (DMEM containing 2% FBS and 0.8% CMC) containing compound dilutions. The cells and were incubated at 37° C. in a humidified 5% CO2 incubator for 2 days.
Cells were washed with PBS before adding 75/25% v/v EtOH/MeOH, for 3 min. Fixative was removed and plates were washed with PBS. A pre-titrated amount of the primary antibody was added in 200 μL PBS/2% milk powder, and plates incubated for 90 min at 37° C. The plates were washed 3 times with PBS/0.05% Tween20 before addition of rabbit anti-goat horse radish peroxidase in 200 μL PBS/2% milk powder, and incubated for 1 h at 37° C. Following three wash steps with PBS/0.05% Tween20, 200 μL ready-to-use TrueBlue was added and plates were incubated at rt for 10-15 min before washing with water. After removal of water, plates were air-dried in the dark.
Plates were scanned and analysed using the Immunospot S6 Macro analyser, which is equipped with BioSpot analysis software for counting immunostained plaques (virospots). Plaque counts were used to calculate % infection relative to the mean of the plaque count in the virus control wells for RSV. The EC50 value was calculated as 50% reduction in signal, respectively, by interpolation of inhibition curves fitted with a 4-parameter nonlinear regression with a variable slope in Dotmatics. Plaque EC50 and cell toxicity CC50 values are a mean of at least two experiments and figures are rounded to whole units.

A short description of another data set: Cell cytotoxicity CC50. It counts as cell-based. Particulars: human; mean of at least two experiments.
The nature of data set [1]: Liver microsomal stability, rat. The class given is in vitro ADME. To be noted: pH 7.4; rat liver microsomes, 0.5 mg/mL protein, 1 μM compound, NADPH; >80% remaining at 45 min denoted >140; read-out: Liver Microsomal Stability: t1/2 (min); rat. How it is done: (§1) Compounds were subjected to the following assays to investigate liver microsomal stability, permeability and plasma protein binding.
(§2) Pooled liver microsomes were purchased from a reputable commercial supplier and stored at −80° C. prior to use. Microsomes (final protein concentration 0.5 mg/mL), 0.1 M phosphate buffer pH 7.4 and test compound (final substrate concentration 1 μM; final DMSO concentration 0.25%) were pre-incubated at 37° C. prior to the addition of NADPH (final concentration 1 mM) to initiate the reaction. The final incubation volume was 50 μL. A control incubation was included for each compound tested where 0.1 M phosphate buffer pH 7.4 was added instead of NADPH (minus NADPH). Two control compounds were included with each species. All incubations were performed singularly for each test compound. Each compound was incubated for 0, 5, 15, 30 and 45 min. The control (minus NADPH) was incubated for 45 min only. The reactions were stopped by transferring incubate into acetonitrile at the appropriate time points, in a 1:3 ratio. The termination plates are centrifuged at 3,000 rpm for 20 min at 4° C. to precipitate the protein. Following protein precipitation, the sample supernatants were combined in cassettes of up to 4 compounds, internal standard added, and samples analysed by LC-MS/MS. From a plot of ln peak area ratio (compound peak area/internal standard peak area) against time, the gradient of the line was determined. Subsequently, half-life (t1/2) and intrinsic clearance (CLint) were calculated.

A short description of data set [2]: Liver microsomal stability, dog. The class given is in vitro ADME. To be noted: pH 7.4; dog liver microsomes, 0.5 mg/mL protein, 1 μM compound, NADPH; >80% remaining at 45 min denoted >140; read-out: Liver Microsomal Stability: t1/2 (min); dog. How it is done:
as §1, §2
(In general: Liver microsomes are a subcellular fraction often used to study metabolism.)

Data set [3] is described as follows: Liver microsomal stability, human. Particulars: pH 7.4; human liver microsomes, 0.5 mg/mL protein, 1 μM compound, NADPH; >80% remaining at 45 min denoted >140; read-out: Liver Microsomal Stability: t1/2 (min); human. The class given is in vitro ADME. Here is the method: as §1, §2

The term EC50 denotes the concentration that produces a half-maximal response. As usually defined, the CC50 is the concentration at which the toxic effect on the cells reaches its halfway point. Read a high CC50 as lower toxicity to the cells. In the case of `CCNc1ccc(-c2c(C(=O)N[C@H]3N=C(c4ccccc4)c4ccccc4NC3=O)c(C)nn2CC)c(F)n1` [Example 10, 1-Ethyl-5-[6-(ethylamino)-2-fluoropyridin-3-yl]-3-methyl-N-[(3S)-2-oxo-5-phenyl-1,3-dihydro-1,4-benzodiazepin-3-yl]pyrazole-4-carboxamide], it took 89 nM to reach a half-maximal effect in the data set with RSV A2 (EC50). The cytotoxic concentration (CC50) in the data set “Cell cytotoxicity CC50” is more than 25 µM. In addition, the values for the half-life in data set [1], in data set [2] and in data set [3] were 20.2 min, 85.8 min and 48.1 min, respectively.

In the case of `CCn1ncc(C(=O)N[C@H]2N=C(c3ccccc3)c3cccc(F)c3NC2=O)c1-c1ncc(NC2CC2)cc1F` [Example 12, 5-[5-(Cyclopropylamino)-3-fluoropyridin-2-yl]-1-ethyl-N-[(3S)-9-fluoro-2-oxo-5-phenyl-1,3-dihydro-1,4-benzodiazepin-3-yl]pyrazole-4-carboxamide], in the data set on RSV A2, the 50% effective concentration (EC50) worked out at 45 nM. Further, the cytotoxic concentration (CC50) in the data set “Cell cytotoxicity CC50” was more than 25 µM. Besides, the half-life is 51.1 min in data set [1], 68.5 min in data set [2] and 193 min in data set [3].

For the compound `CCNc1cnc(-c2c(C(=O)N[C@H]3N=C(c4ccccc4)c4cccc(F)c4NC3=O)cnn2CC)c(F)c1` [Example 13, 1-Ethyl-5-[5-(ethylamino)-3-fluoropyridin-2-yl]-N-[(3S)-9-fluoro-2-oxo-5-phenyl-1,3-dihydro-1,4-benzodiazepin-3-yl]pyrazole-4-carboxamide], in the data set on RSV A2, the midpoint of the response, the EC50, lay at 68 nM. This compound displayed a cytotoxic concentration (CC50) in the data set “Cell cytotoxicity CC50” of more than 25 µM. The half-life in data set [1] was found to be 9.6 min; in data set [2], 35.6 min; in data set [3], 42.9 min.

For `CCNc1ccc(-c2c(C(=O)N[C@H]3N=C(c4ccccc4)c4ccccc4NC3=O)cnn2C2CC2)c(F)n1` [Example 14, 1-Cyclopropyl-5-[6-(ethylamino)-2-fluoropyridin-3-yl]-N-[(3S)-2-oxo-5-phenyl-1,3-dihydro-1,4-benzodiazepin-3-yl]pyrazole-4-carboxamide], in the data set with RSV A2, the EC50 amounted to 95 nM. Further, the CC50 in “Cell cytotoxicity CC50” was more than 25 µM. Also, the half-life in data set [1] stood at 37.9 min; in data set [2] it was 59.3 min; in data set [3] it was 93.7 min.

In the case of `O=C(N[C@H]1N=C(c2ccccc2)c2ccccc2NC1=O)c1cnn(C2CC2)c1-c1ccc(NC2CC2)nc1F` [Example 15, 1-Cyclopropyl-5-[6-(cyclopropylamino)-2-fluoropyridin-3-yl]-N-[(3S)-2-oxo-5-phenyl-1,3-dihydro-1,4-benzodiazepin-3-yl]pyrazole-4-carboxamide], in the data set with RSV A2, it took 51 nM to reach a half-maximal effect (EC50). Further, the CC50 in the data set “Cell cytotoxicity CC50” is more than 25 µM. Also, the half-life in data set [1] is 69.8 min; in data set [2], 57.7 min; in data set [3], 72.3 min.

On to `CC(C)n1ncc(C(=O)N[C@H]2N=C(c3ccccc3)c3ccccc3NC2=O)c1-c1ccc(NC2CC2)nc1F` [Example 16, 5-[6-(Cyclopropylamino)-2-fluoropyridin-3-yl]-N-[(3S)-2-oxo-5-phenyl-1,3-dihydro-1,4-benzodiazepin-3-yl]-1-propan-2-ylpyrazole-4-carboxamide], for which the EC50 in the data set on RSV A2 amounted to 50 nM. In “Cell cytotoxicity CC50”, this compound gave a CC50 of more than 25 µM. Besides, the half-life in data set [1] worked out at 72.7 min; in data set [2], 22.2 min; in data set [3] it was 50.6 min.

For the compound `CCn1ncc(C(=O)N[C@H]2N=C(c3ccccc3)c3cccc(F)c3NC2=O)c1-c1ncc(NC(C)C)cc1F` [Example 17, 1-Ethyl-N-[(3S)-9-fluoro-2-oxo-5-phenyl-1,3-dihydro-1,4-benzodiazepin-3-yl]-5-[3-fluoro-5-(propan-2-ylamino)pyridin-2-yl]pyrazole-4-carboxamide], the midpoint of the response in the data set with RSV A2, the EC50, lay at 52 nM. This compound also came in with a CC50 in the data set “Cell cytotoxicity CC50” of more than 25 µM. Also, the half-life in data set [1] is 318 min; in data set [2], 68.9 min; in data set [3], 120 min.

In the case of `O=C(N[C@H]1N=C(c2ccccc2)c2ccccc2NC1=O)c1cnn(C2COC2)c1-c1ccc(NC2CC2)nc1F` [Example 18, 5-[6-(Cyclopropylamino)-2-fluoropyridin-3-yl]-1-(oxetan-3-yl)-N-[(3S)-2-oxo-5-phenyl-1,3-dihydro-1,4-benzodiazepin-3-yl]pyrazole-4-carboxamide], the EC50 in the data set on RSV A2 was 83 nM. Also, the CC50 in “Cell cytotoxicity CC50” was more than 25 µM. The results for the half-life in data set [1], in data set [2] and in data set [3] were 93.5 min, 149 min and 144 min, respectively.

In the case of `CCCNc1ccc(-c2nn(CC)cc2C(=O)N[C@H]2N=C(c3ccccc3)c3ccccc3NC2=O)c(F)n1` [Example 27, 1-Ethyl-3-[2-fluoro-6-(propylamino)pyridin-3-yl]-N-[(3S)-2-oxo-5-phenyl-1,3-dihydro-1,4-benzodiazepin-3-yl]pyrazole-4-carboxamide], the concentration for a half-maximal effect (EC50) in the data set on RSV A2 was determined as 57 nM. The compound further yielded a CC50 in the data set “Cell cytotoxicity CC50” of more than 25 µM. Further, the figures for the half-life in data set [1], in data set [2] and in data set [3] were 23.9 min, 12.6 min and 43.1 min, respectively.

In the case of `CCCNc1ccc(-c2nn(CC)cc2C(=O)N[C@H]2N=C(c3ccccc3)c3cccc(F)c3NC2=O)c(F)n1` [Example 28, 1-Ethyl-N-[(3S)-9-fluoro-2-oxo-5-phenyl-1,3-dihydro-1,4-benzodiazepin-3-yl]-3-[2-fluoro-6-(propylamino)pyridin-3-yl]pyrazole-4-carboxamide], the concentration for a half-maximal effect (EC50) with RSV A2 came out at 39 nM. In “Cell cytotoxicity CC50”, this compound registered a cytotoxic concentration (CC50) of more than 25 µM. Also, the half-life is 22.7 min in data set [1], 30.8 min in data set [2] and 41 min in data set [3].

`CC(C)(C)n1cc(C(=O)N[C@H]2N=C(c3ccccc3)c3ccccc3NC2=O)c(-c2ccc(NC3CC3)nc2F)n1` [Example 29, 1-tert-butyl-3-[6-(cyclopropylamino)-2-fluoropyridin-3-yl]-N-[(3S)-2-oxo-5-phenyl-1,3-dihydro-1,4-benzodiazepin-3-yl]pyrazole-4-carboxamide]: the midpoint of the response in the data set on RSV A2, the EC50, lay at 54 nM. In addition, the half-maximal cytotoxic concentration (CC50) in “Cell cytotoxicity CC50” was more than 25 µM. The half-life in data set [1] is 45.2 min; in data set [2], 44 min; in data set [3], 73.9 min.

In turn, `O=C(N[C@H]1N=C(c2ccccc2)c2ccccc2NC1=O)c1cn(C2CCOCC2)nc1-c1ccc(NC2CC2)nc1F` [Example 31, 3-[6-(Cyclopropylamino)-2-fluoropyridin-3-yl]-1-(oxan-4-yl)-N-[(3S)-2-oxo-5-phenyl-1,3-dihydro-1,4-benzodiazepin-3-yl]pyrazole-4-carboxamide] displayed an EC50 in the data set with RSV A2 of 55 nM. In addition, the cytotoxic concentration (CC50) in “Cell cytotoxicity CC50” is more than 25 µM. In addition, the half-life in data set [1] worked out at 36.3 min; in data set [2], 65.7 min; in data set [3] it was 116 min.

As for `O=C(N[C@H]1N=C(c2ccccc2)c2cccc(F)c2NC1=O)c1cn(CC(F)(F)F)nc1-c1ccc(NC2CC2)nc1F` [Example 33, 3-[6-(Cyclopropylamino)-2-fluoropyridin-3-yl]-N-[(3S)-9-fluoro-2-oxo-5-phenyl-2,3-dihydro-1H-1,4-benzodiazepin-3-yl]-1-(2,2,2-trifluoroethyl)-1H-pyrazole-4-carboxamide], the EC50 in the data set on RSV A2 turned out to be 80 nM. The compound further registered a 50% cytotoxic concentration (CC50) in the data set “Cell cytotoxicity CC50” of more than 25 µM. The half-life in data set [1] was 56 min; in data set [2], 81 min; in data set [3], 80.3 min.
